According to patent publication US4029799A, “Certain analgesically active substituted benzyl pyridine compounds” (Laboratorios Made, S.A., priority 1975, dated 1977):

What was measured:
[1] = test system: female albino I.C.R. Swiss mice; experiment: Analgesic activity, Hot Plate Test at 55° C.; type: in vivo; conditions: for Jump-off time: 30 minutes after administration, average ± standard mean error, control 77 ± 9.272
Description: the analgesic activity of 2-(3,4,5-trimethoxybenzyl)-3,4-dimethylpyridine compound (I) was investigated in female albino I.C.R. Swiss mice weighing 24± 2 g. For this the Hot Plate Test was used at 55° C. 4 groups of mice each comprising 10 animals, were assembled. The distribution of the groups was according to the following scheme:-
Group 1-- Control - 0.2 ml of distilled H2 O
Group 2-- Compound I-0.2 ml of a solution of 2-(3,4,5-trimethoxybenzyl)-3,4-dimethylpyridine (I), 3 mg/ml.
Group 3-- Compound I-0.2 ml of a solution of 2-(3,4,5-trimethoxybenzyl)-3,4-dimethylpyridine (I), 6 mg/ml.
Group 4-- Dextropropoxyphene - 0.2 ml of a solution of dextropropoxyphene, 6 mg/ml.
The products were injected intraperitoneally, and the measurements of analgesia were made 30 minutes after the administration of the drugs. Note was taken of the time taken for an animal to jump off the hot plate.

I.C.R. Swiss mice = experiment: Acute toxicity (i.p.), method of Lichfield and Wilcoxon; type: in vivo, both sexes
Description: (§1) acute toxicity studies were carried out in I.C.R. Swiss mice weighing 24± 2 g, of both sexes. The products were administered intraperitoneally (i.p.). Acute toxicity was calculated by the method of Lichfield and Wilcoxon.

[2] = as above; type: in vivo, I.C.R. Swiss mice, both sexes; conditions: mouse, in vivo, ip, mice, read-out: Lethal dose 50 (LD50)
Description: as §1

| Structure (SMILES) | Jump-off time ([1]; 25 mg/kg i.p.) [s] | Significance (jump-off time) ([1]; 25 mg/kg i.p., N.S. or p value) | Jump-off time ([1]; 50 mg/kg i.p.) [s] | analgesic activity compared with d-propoxyphene ([1]; for equal doses, Hot Plate Test) | therapeutic index compared with dextropropoxyphene ([1]; from analgesia and acute toxicity in mice) | toxicity compared with d-propoxyphene (I.C.R. Swiss mice) | LD50 [2] [mg/kg] |
| --- | --- | --- | --- | --- | --- | --- | --- |
| COc1cc(Cc2nccc(C)c2C)cc(OC)c1OC [Compound I, 2-(3,4,5-trimethoxybenzyl)-3,4-dimethylpyridine] | 77 ± 8.203 | N.S. | 133.5 ± 12.581 | more analgesic than d-propoxyphene | greater than that of dextropropoxyphene | less toxic | 250 |
| CCC(=O)O[C@](Cc1ccccc1)(c1ccccc1)[C@H](C)CN(C)C [Dextropropoxyphene, reference compound] | – | – | 102.4 ± 10.302 | – | – | – | – |
